Tests used:
[1] = target: T1, M4 mAChR (Homo sapiens, UniProt P08173); assay: cAMP TR-FRET assay with forskolin, M4-overexpressing CHO-K1 cells; type: cell-based
T1 construct: expressed in transfected cells; host or cells: CHO-K1
T1 sequence (P08173 1-479): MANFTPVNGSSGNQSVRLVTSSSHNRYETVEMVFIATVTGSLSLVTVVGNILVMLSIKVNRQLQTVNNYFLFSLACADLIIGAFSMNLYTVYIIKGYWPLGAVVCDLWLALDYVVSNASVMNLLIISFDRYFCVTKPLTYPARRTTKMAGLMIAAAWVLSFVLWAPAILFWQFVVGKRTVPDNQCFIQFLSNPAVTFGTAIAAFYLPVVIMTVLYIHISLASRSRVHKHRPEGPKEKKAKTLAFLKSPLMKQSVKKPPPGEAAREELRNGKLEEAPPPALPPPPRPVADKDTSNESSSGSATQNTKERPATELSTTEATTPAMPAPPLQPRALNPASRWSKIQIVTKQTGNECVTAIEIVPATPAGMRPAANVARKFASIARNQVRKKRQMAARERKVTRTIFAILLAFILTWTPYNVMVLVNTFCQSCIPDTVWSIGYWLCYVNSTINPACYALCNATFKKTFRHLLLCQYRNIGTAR
Summary of the method: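 CHO-K1 cells overexpressing the receptor were stimulated with forskolin to raise cAMP, so that Gi-mediated agonist decreases could be measured. cAMP was quantified by TR-FRET competition between cellular cAMP and labelled donor for anti-cAMP antibody, giving potency and efficacy.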

[2] = target: T2, M3 muscarinic acetylcholine receptor (mAChR) (Homo sapiens, UniProt P20309); assay: FLIPR calcium assay (Fluo 8), M3-overexpressing CHO-K1 cells; type: cell-based
T2 construct: expressed in transfected cells; host or cells: CHO-K1
Summary of the method: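 CHO-K1 cells overexpressing each human receptor seeded at 15,000 per well, grown overnight at 37° C., 5% CO2, then loaded with Fluo-8 for 30 min. Compounds in HBSS added and calcium response read on FLIPR; EC50 and Emax calculated per subtype.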

T2 sequence (P20309 whole entry): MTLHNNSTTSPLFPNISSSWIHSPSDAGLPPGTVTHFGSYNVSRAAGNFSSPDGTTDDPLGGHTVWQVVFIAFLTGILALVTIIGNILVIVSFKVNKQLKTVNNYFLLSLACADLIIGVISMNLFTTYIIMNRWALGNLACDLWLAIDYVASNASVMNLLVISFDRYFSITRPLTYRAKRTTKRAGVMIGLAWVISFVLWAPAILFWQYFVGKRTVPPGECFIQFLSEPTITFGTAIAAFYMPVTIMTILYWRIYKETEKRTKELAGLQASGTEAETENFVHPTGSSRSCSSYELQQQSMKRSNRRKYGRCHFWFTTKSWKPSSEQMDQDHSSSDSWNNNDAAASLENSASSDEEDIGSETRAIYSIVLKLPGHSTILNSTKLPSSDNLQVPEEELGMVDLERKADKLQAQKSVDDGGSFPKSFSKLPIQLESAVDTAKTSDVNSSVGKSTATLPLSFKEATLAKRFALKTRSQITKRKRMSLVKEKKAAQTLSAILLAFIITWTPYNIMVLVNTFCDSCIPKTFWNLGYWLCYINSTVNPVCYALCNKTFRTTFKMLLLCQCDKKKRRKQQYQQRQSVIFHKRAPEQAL

Emax ([1]; cAMP TR-FRET with forskolin) [%]	EC50 ([2]; FLIPR calcium) [µM]	Emax ([1]; cAMP assay) [%]	EC50 ([2]; FLIPR) [µM]	Compound
50 to 79.9	> 10			CCOC(=O)N1CC2(CC[C@@H](N3CCN(c4cc(F)cnc4-c4cccc5cnn(C)c45)CC3)C2)C1 [Compound A65]
80 to 100	> 10			CCOC(=O)N1CC2(CC[C@@H](N3CCN(c4cc(F)cnc4-c4cc(C)nn4C)CC3)C2)C1 [Compound A144]
80 to 100	> 10			CCOC(=O)N1CC2(CC[C@@H](N3CCN(c4cc(F)cnc4-c4cnc5c(ccn5C)c4)CC3)C2)C1 [Compound A99]
		80 to 100	> 10	CCOC(=O)N1CC2(CC[C@@H](N3CCN(c4cc(F)cnc4-c4cn(C)nn4)CC3)C2)C1 [Compound A230]
		50 to 79.9	> 10	CCOC(=O)N1CC2(CC[C@@H](N3CCN(c4cc(F)cnc4-n4ccc(C)n4)CC3)C2)C1 [Compound A291]
		80 to 100	> 10	CCOC(=O)N1CC2(CC[C@@H](N3CCN(c4cc(F)cnc4-c4ccc(C)cn4)CC3)C2)C1 [Compound A228]
80 to 100	> 10			CCOC(=O)N1CC2(CC[C@@H](N3CCN(c4cc(F)cnc4-c4ccc5cn(C)nc5c4)CC3)C2)C1 [Compound A68]
		80 to 100	> 10	CCOC(=O)N1CC2(CC[C@@H](N3CCN(c4cc(F)cnc4-c4ncccc4F)CC3)C2)C1 [Compound A283]
80 to 100	> 10			CCOC(=O)N1CC2(CC[C@@H](N3CCN(c4cc(F)cnc4-c4ccc5cnn(C)c5c4)CC3)C2)C1 [Compound A54]
80 to 100	> 10			CCOC(=O)N1CC2(CC[C@@H](N3CCN(c4cc(F)cnc4-c4c(C)n[nH]c4C)CC3)C2)C1 [Compound A81]
		19 to 49.9	> 10	CCOC(=O)N1CC2(CC[C@@H](N3CCN(c4cc(F)cnc4-c4cc(C)c(=O)n(C)c4)CC3)C2)C1 [Compound A202]
		80 to 100	> 10	CCOC(=O)N1CC2(CC[C@@H](N3CCN(c4cc(F)cnc4-c4cc(C)[nH]c(=O)c4)CC3)C2)C1 [Compound A205]
		80 to 100	> 10	CCOC(=O)N1CC2(CC[C@@H](N3CCN(c4cc(F)cnc4-c4ccc(C)nc4)CC3)C2)C1 [Compound A186]
80 to 100	> 10			CCOC(=O)N1CC2(CC[C@@H](N3CCN(c4cc(F)cnc4-c4ccn(CC)n4)CC3)C2)C1 [Compound A121]
		50 to 79.9	> 10	CCOC(=O)N1CC2(CC[C@@H](N3CCN(c4cc(F)cnc4-c4cnn(C(C)(C)C)c4)CC3)C2)C1 [Compound A191]
		80 to 100	> 10	CCOC(=O)N1CC2(CC[C@@H](N3CCN(c4cc(F)cnc4-c4cc(F)ncc4F)CC3)C2)C1 [Compound A153]
		50 to 79.9	> 10	CCOC(=O)N1CC2(CC[C@@H](N3CCN(c4cc(F)cnc4-c4ccc(C)c(CO)c4)CC3)C2)C1 [Compound A150]

Further lines, the compound ahead of its results:

Compound	Emax ([1]; cAMP TR-FRET with forskolin) [%]	EC50 ([2]; FLIPR calcium) [µM]	Emax ([1]; cAMP assay) [%]	EC50 ([2]; FLIPR) [µM]
CCOC(=O)N1CC2(CC[C@@H](N3CCN(c4cc(F)cnc4-c4ccc(F)c(CO)c4)CC3)C2)C1 [Compound A105]	80 to 100	> 10		
CCOC(=O)N1CC2(CC[C@@H](N3CCN(c4cc(F)cnc4-c4ccc(Cl)cn4)CC3)C2)C1 [Compound A259]			80 to 100	> 10
CCOC(=O)N1CC2(CC[C@@H](N3CCN(c4cc(Cl)cnc4-c4ccn(C)n4)CC3)C2)C1 [Compound A208]			50 to 79.9	> 10
CCOC(=O)N1CC2(CC[C@@H](N3CCN(c4cc(F)cnc4-c4ccc(C(F)(F)F)nn4)CC3)C2)C1 [Compound A243]			50 to 79.9	> 10
CCOC(=O)N1CC2(CC[C@@H](N3CCN(c4cc(F)cnc4-c4cccc(F)n4)CC3)C2)C1 [Compound A128]	80 to 100	> 10		
CCOC(=O)N1CC2(CC[C@@H](N3CCN(c4cc(C)cnc4-c4cnccn4)CC3)C2)C1 [Compound A255]			80 to 100	> 10
CCOC(=O)N1CC2(CC(N3[C@@H]4CC[C@H]3CN(c3cc(F)cnc3-c3cnccn3)C4)CS2)C1 (single isomer, unassigned) [Compound A219]			< 19	> 10
CCOC(=O)N1CC2(CC[C@@H](N3CCN(c4cc(F)cnc4-c4cc(C)cc(CO)c4)CC3)C2)C1 [Compound A141]	80 to 100	> 10		
CCOC(=O)N1CC2(CC[C@@H](N3CCN(c4cc(F)cnc4-c4cnc(OC)cn4)CC3)C2)C1 [Compound A226]			80 to 100	> 10
CCOC(=O)N1CC2(CC[C@@H](N3CCN(c4cc(F)cnc4-c4cc(O)ncc4F)CC3)C2)C1 [Compound A175]			80 to 100	> 10
CCOC(=O)N1CC2(CC[C@@H](N3CCN(c4cc(F)cnc4-c4cccc(C(=O)NC)c4)CC3)C2)C1 [Compound A97]	80 to 100	> 10		
CCOC(=O)N1CC2(CC[C@H](N3CCN(c4cc(F)cnc4C4CCOCC4)CC3)C2)C1 [Compound A274]			80 to 100	> 10
CCOC(=O)N1CC2(CC[C@@H](N3CCN(c4cc(F)cnc4-c4ccc(CO)cc4)CC3)C2)C1 [Compound A34]	80 to 100	> 10		
CCOC(=O)N1CC2(CC[C@@H](N3CCN(c4cc(F)cnc4-c4ccn5nccc5c4)CC3)C2)C1 [Compound A165]			80 to 100	> 10
CCOC(=O)N1CC2(CC[C@@H](N3CCN(c4cc(F)cnc4-c4cc(F)ccc4O)CC3)C2)C1 [Compound A42]	80 to 100	> 10		
CCOC(=O)N1CC2(CC[C@@H](N3CCN(c4cc(F)cnc4-c4cnn(C5COC5)c4)CC3)C2)C1 [Compound A126]	80 to 100	> 10		
CCOC(=O)N1CC2(CC[C@@H](N3CCN(c4cc(F)cnc4-c4cnn5c4OCCC5)CC3)C2)C1 [Compound A173]			50 to 79.9	> 10
CCOC(=O)N1CC2(CC[C@@H](N3CCN(c4cc(Cl)cnc4-c4cn(C)nn4)CC3)C2)C1 [Compound A256]			80 to 100	> 10

Compound	Emax ([1]; cAMP TR-FRET with forskolin) [%]	EC50 ([2]; FLIPR calcium) [µM]	Emax ([1]; cAMP assay) [%]	EC50 ([2]; FLIPR) [µM]
CCOC(=O)N1CC2(CC[C@@H](N3CCN(c4cc(F)cnc4-c4ccc(OC)cc4CO)CC3)C2)C1 [Compound A145]	80 to 100	> 10		
CCOC(=O)N1CC2(CC[C@@H](N3CCN(c4cc(F)cnc4-c4ccccc4C#N)CC3)C2)C1 [Compound A47]	80 to 100	> 10		
CCOC(=O)N1CC2(CC[C@@H](N3CCN(c4cc(Cl)cnc4-c4ccn(C)c(=O)c4)CC3)C2)C1 [Compound A209]			80 to 100	> 10
CCOC(=O)N1CC2(CC[C@@H](N3CCN(c4cc(F)cnc4-c4cnc(C(F)(F)F)cn4)CC3)C2)C1 [Compound A250]			80 to 100	> 10
CCOC(=O)N1CC2(CC[C@@H](N3CCN(c4cc(F)cnc4-c4ccc(CO)c(C)c4)CC3)C2)C1 [Compound A134]	80 to 100	> 10		
CCOC(=O)N1CC2(CC[C@@H](N3CCN(c4cc(F)cnc4-c4ccnc(F)n4)CC3)C2)C1 [Compound A284]			80 to 100	> 10
CCOC(=O)N1CC2(CC[C@@H](N3CCN(c4cc(F)cnc4-c4ccnc5c4ccn5C)CC3)C2)C1 [Compound A89]	80 to 100	> 10		
CCOC(=O)N1CC2(CC[C@@H](N3CCN(c4cc(Cl)cnc4-c4cccnn4)CC3)C2)C1 [Compound A245]			80 to 100	> 10
CCOC(=O)N1CC2(CC[C@@H](N3CCN(c4cc(F)cnc4C4CCN(C)CC4)CC3)C2)C1 [Compound A273]			80 to 100	> 10
CCOC(=O)N1CC2(CC[C@@H](N3CCN(c4cc(F)cnc4-c4ccc5nc[nH]c5c4)CC3)C2)C1 [Compound A148]			80 to 100	> 10
CCOC(=O)N1CC2(CCC(N3CCN(c4cccnc4N4CCC(C#N)CC4)CC3)C2)C1 (stereo not shown) [Compound A217]			80 to 100	> 10
CCOC(=O)N1CC2(CC[C@@H](N3CCN(c4cc(F)cnc4-c4cnn(CCOC)c4)CC3)C2)C1 [Compound A38]	80 to 100	> 10		
CCOC(=O)N1CC2(CC[C@@H](N3CCN(c4cc(F)cnc4-c4cnn(CC(F)F)c4)CC3)C2)C1 [Compound A172]			80 to 100	> 10
CCOC(=O)N1CC2(CC[C@@H](N3CCN(c4cc(F)cnc4-c4ccc(O)c(F)c4)CC3)C2)C1 [Compound A44]	80 to 100	> 10		
CCOC(=O)N1CC2(CC[C@@H](N3CCN(c4cc(F)cnc4-c4cccc5c[nH]nc45)CC3)C2)C1 [Compound A61]	80 to 100	> 10		
CCOC(=O)N1CC2(CC[C@@H](N3CCN(c4cc(F)cnc4-c4cnc(N(C)C)nc4)CC3)C2)C1 [Compound A73]	80 to 100	> 10		
CCOC(=O)N1CC2(CC[C@@H](N3CCN(c4cc(F)cnc4-c4csc(CO)c4)CC3)C2)C1 [Compound A86]	80 to 100	> 10		
CCOC(=O)N1CC2(CC[C@@H](N3CCN(c4cc(F)cnc4-c4cccc(OC)n4)CC3)C2)C1 [Compound A133]	19 to 49.9	> 10		

From patent US20260098026A1, “M4 ACTIVATORS/MODULATORS AND USES THEREOF” (Cerevel Therapeutics, LLC, priority 2022, published 2026)
